# Reference: US20080194575A1, “Treatment for non-alcoholic-steatohepatitis” (priority 2006, published 2008)
# Legend:
# Format in all cases: in vivo, C56BL/6 mice
# Caspase-3 = Caspase-3 activity in whole liver extracts (Ac-DEVD-AMC); settings: HSD 4 weeks, compound A 30 mg/kg daily subcutaneous (FIG. 6A)
# Description: (§1) Animals, feeding and treatments Two groups of 8 week old male C56BL/6 mice were set under a high sucrose containing diet together with 1% Orotic acid (HSD) for 4 weeks (TD 02366, Tekland Mills) (Feldstein et al. J Hepatol, 39:978-983(2003)). All animals were purchased from Jackson Laboratories and were treated and handled following the National Academy of Sciences criteria (NIH publication 86-23 revised 1985). One group of animals received a daily subcutaneous injection of compound A at a concentration of 30 mg/kg (compound A) and the second group received vehicle with the same frequency (Vehicle). Additionally, a third group of mice was fed under a normal chow diet (control).
# (§2) Detection of apoptosis Apoptotic cell death was determined in liver tissue by using two difference strategies. Caspase-3 activity was analysed in whole liver extracts. Proteins were extracted with the lysis buffer containing 1M Hepes, 10% CHAPS, 0.5 EDTA, 1 m DTT and 0.1 M pefa-block and further incubated with the fluorescent substrate Ac-DEVD-AMC (Biomol). The enzymatic activity was then measured at λ. excitation 390 nm and λ emission 510 nm and the result was corrected with the protein concentration. Additionally, we performed a TUNEL assay on frozen liver sections using the “In situ cell death detection Kit, POD” (Roche Diagnostics Corp.) following manufacturer's instructions.
# MnSOD = MnSOD mRNA expression in liver by real time RT-PCR; settings: HSD 4 weeks, compound A 30 mg/kg daily subcutaneous, vs vehicle and chow controls (FIG. 5B)
# Description: as §1
# (§3) RNA isolation and quantitative Real Time PCR RNA from frozen liver tissue was extracted with PeqGOLD-RNAPure kit (Peqlab). First strand synthesis was performed with Oligo dT primers and reverse transcription with M-MLV Reverse Transcriptase (Invitrogen Corp.) Quantitative Real Time PCR was performed with the AbbyPrism 7300 Real-Time PCR system from Applied Biosystems by using SYBR Green Reagent (Applied biosystems). Real time reactions were performed twice in triplicates. All values were normalized to the level of GAPDH. Primer sequences are detailed in Table 1.
# adiponectin = test: Serum and liver adiponectin expression by ELISA; settings: after 4 weeks of HSD, compound A 30 mg/kg daily subcutaneous
# Description: as §1
# (§4) Serum analysis Blood was taken from mice after fasting and glucose levels were measured with Ascensia Elite sensor (Bayer). Serum Insulin (Linco Research) and Adiponectin (R&D systems) levels were quantified by ELISA.
# [1] = test system: Cytochrome P450 2E1 (CYP2E1); test: CYP2E1 mRNA expression in liver by real time RT-PCR; settings: HSD 4 weeks, compound A 30 mg/kg daily subcutaneous (FIG. 5A)
# Description: as §1, §3
# [2] = test system: fatty acid translocase/CD36; test: Fatty acid translocase/CD36 gene expression in liver by real time RT-PCR; settings: HSD 4 weeks, compound A 30 mg/kg daily subcutaneous (FIG. 4E)
# Description: as §1, §3
# PPARα = PPARα expression in liver (real time RT-PCR, western blot); settings: HSD 4 weeks
# Description: as §1
# (§5) Western blot analysis Whole liver protein extracts were obtained by using ice- cold buffer (20 mM Tris pH 7.5, 150 mM NaCl, 1 mM EGTA, 1 mM EDTA, 1% Triton X-100, 2.5 mM sodium pyrophosphate and cocktail of protease inhibitors). […]
# (§6) RNA isolation and quantitative Real Time PCR RNA from frozen liver tissue was extracted with PeqGOLD-RNAPure kit (Peqlab). First strand synthesis was performed with Oligo dT primers and reverse transcription with M-MLV Reverse Transcriptase (Invitrogen Corp.) Quantitative Real Time PCR was performed with the AbbyPrism 7300 Real-Time PCR system from Applied Biosystems by using SYBR Green Reagent (Applied biosystems). […]
# PPARγ = PPARγ expression in liver on the mRNA and protein level; settings: HSD 4 weeks
# Description: as §1, §5, §6
# Acyl-CoA oxidase (ACOX) = Acyl-CoA oxidase (ACOX) mRNA expression in liver by real time RT-PCR; settings: HSD 4 weeks, compound A 30 mg/kg daily subcutaneous, vs vehicle (FIG. 4C)
# Description: as §1, §3
# CPT-1 = CPT-1 mRNA expression in liver by real time RT-PCR; settings: HSD 4 weeks, compound A 30 mg/kg daily subcutaneous, vs vehicle (FIG. 4B)
# Description: as §1, §3
# [3] = Serum analysis after fasting in HSD fed mice: blood glucose, serum insulin (insulin resistance); settings: HSD 4 weeks, compound A 30 mg/kg daily subcutaneous
# Description: as §1, §4
# [4] = High sucrose diet (HSD) induced obesity in mice: body weight gain and abdominal fat; settings: HSD 4 weeks, compound A 30 mg/kg daily subcutaneous
# Description: as §1
# TNF = TNF expression in liver by Real Time RT-PCR; settings: HSD 4 weeks, compound A 30 mg/kg daily subcutaneous, HSD/vehicle vs HSD/compound A (FIG. 3B)
# Description: as §1, §3
# Catalase = Catalase mRNA expression in liver by real time RT-PCR; settings: HSD 4 weeks, compound A 30 mg/kg daily subcutaneous, vs vehicle and chow controls
# Description: as §1, §3
# [5] = test system: HSD induced hepatic steatosis; test: Histological evaluation of HSD induced hepatic steatosis (H&E semiquantitative score, Oil-Red-O staining); settings: HSD 4 weeks
# Description: as §1
# (§7) Histological evaluation Livers from mice were harvested and after fixation with formaldehyde embedded in paraffin for further histological evaluation. Hematoxylin & Eosin staining was performed in liver sections and steatosis was assessed following a semiquantitative scoring system. Oil red 0 staining was performed to evidence the presence of intracellular lipds. Liver fibrosis was determined by Sirius Red which stains collagen fibres. Scoring of fibrosis was performed following the Brunt system. Additionally, immunohistochemistry (IHC) was performed on cryosections for the polyclonal anti-P65 (A) antibody, dilution 1/50 and anti-TNFα antibody, dilution 1/20 (both from Santa Cruz Biotechnology Inc.). […]
# hepatocyte apoptosis = test: TUNEL assay on frozen liver sections (hepatocyte apoptosis); settings: HSD 4 weeks, compound A 30 mg/kg daily subcutaneous
# Description: as §1, §2
# [6] = test system: HSD induced liver fibrosis; test: Liver fibrosis by Sirius red staining, Brunt score; settings: HSD 4 weeks
# Description: as §1, §7
# NF-κB = test: HSD induced NF-κB activation in liver (I-κBα western blot, p65 immunohistochemistry); settings: HSD 4 weeks, compound A 30 mg/kg daily subcutaneous
# Description: as §1, §7
# IL-6 = IL-6 expression in liver by Real Time RT-PCR; settings: HSD 4 weeks, compound A 30 mg/kg daily subcutaneous, HSD/vehicle vs HSD/compound A (FIG. 3A)
# Description: as §1, §3
# [7] = compound A 30 mg/kg daily subcutaneous, vs HSD/vehicle
compound,measurement,setting,value
"CC(=O)N1CCN(C(=O)c2ccc(Nc3nccc(-c4ccc(Cl)cc4)n3)cc2)CC1 [compound A, 1-(4-{4-[4-(4-Chloro-phenyl)-pyrimidin-2-ylamino]-benzoyl}-piperazin-1-yl)-ethanone]",caspase 3 activity,Caspase-3,strongly reduced caspase 3 activity to a level as found in chow control mice
same,MnSOD mRNA expression,MnSOD,significantly higher in compound A treated animals compared to vehicle treated mice and chow controls
same,adiponectin expression in serum,adiponectin; vs chow controls (FIG. 3C),no significant change in adiponectin expression
same,adiponectin expression in liver,adiponectin; vs chow controls (FIG. 3D),no significant change in adiponectin expression
same,CYP2E1 mRNA expression,[1],reduced HSD induced upregulation of CYP2E1 and its expression was not significantly different than the chow control group
same,CD36 gene expression,[2],upregulated in HSD/compound A mice
same,"PPARα protein, western blot",PPARα; [7],higher presence of PPARα in livers from HSD/compound A mice than in HSD/vehicle animals
same,PPARα mRNA expression,"PPARα; real time RT-PCR, compound A 30 mg/kg daily subcutaneous (FIG. 4A)",significantly higher expression in liver from HSD fed mice treated with compound A
same,PPARγ mRNA expression,PPARγ; compound A 30 mg/kg daily subcutaneous (FIG. 4D),upregulated in livers derived from these animals
same,"PPARγ protein expression, western blot",PPARγ; [7],more pronounced presence in compound A mice
same,ACOX mRNA expression,Acyl-CoA oxidase (ACOX),up-regulated in livers from mice that received the compound A compared to vehicle treated animals
same,CPT-1 mRNA expression,CPT-1,up-regulated in livers from mice that received the compound A compared to vehicle treated animals
same,serum insulin levels,"[3]; ELISA, vs HSD/vehicle (FIG. 1C)",roughly significantly less blood insulin that HSD/vehicle treated animals (p=0.06)
same,blood glucose levels,"[3]; fasted, HSD/vehicle vs HSD/compound A (FIG. 1B)",blood glucose levels were significantly higher in this group compared to animals treated with either HSD/compound A
same,fat accumulation in the abdominal cavity,"[4]; macroscopical, vs vehicle and chow control",less amount of fat that was not significantly different compared to control chow mice
same,body weight gain,[4]; vs HSD/vehicle (FIG. 1A),significant weight gain was observed in vehicle treated mice after 4 weeks of HSD feeding compared to compound A treated mice
same,TNF mRNA expression,TNF,upregulation of IL-6 and TNF mRNA expression was found compared to the HSD/compound A
same,Catalase mRNA expression,Catalase,significantly higher in compound A treated animals compared to vehicle treated mice and chow controls
same,fat deposits in liver (Oil-Red-O staining),[5]; compound A 30 mg/kg daily subcutaneous,only minor microvesicular fat dropples could be observed in some of the HSD/compound A mice analysed
same,liver histology / steatosis (H&E staining),[5]; compound A 30 mg/kg daily subcutaneous (FIG. 2),liver histology similar to chow control animals with no clear evidence of fat accumulation
same,TUNEL-positive cells,hepatocyte apoptosis,"increase in TUNEL-positive cells, which could be blocked using compound A"
same,fibrosis score according to Brunt score,"[6]; compound A 30 mg/kg daily subcutaneous, HSD/vehicle score 1.6",virtually zero
same,liver collagen expression (Sirius red staining),"[6]; liver sections, compound A 30 mg/kg daily subcutaneous (FIG. 6B)",no significant degree of collagen expression could be detected
same,"I-κBα levels, western blot of whole liver extracts",NF-κB; lower levels in HSD/vehicle,I-κBα was clearly present in HSD/compound A
same,"NF-κB activation, p65 immunohistochemistry on liver sections",NF-κB; strong activation in HSD/vehicle,stainings were practically negative in HSD/compound A
same,IL-6 mRNA expression,IL-6,upregulation of IL-6 and TNF mRNA expression was found compared to the HSD/compound A
